Assay results reported in patent US10829501B2 (BRISTOL-MYERS SQUIBB COMPANY, priority 2016, dated 2020).
Structures can show the parent of a compound that is named as a salt.

Each molecule was assayed against ROCK2 (Homo sapiens, UniProt O75116) (assay: ROCK2 kinase inhibition assay (LABCHIP 3000 Reader, FITC peptide substrate)). Details: not given.
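Note: rho kinase reaction read by separating phosphorylated from unphosphorylated peptide on chip, with inhibition of kinase activity computed per concentration across a dose-response series.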

Chain of ROCK2 (O75116 whole entry, species assumed): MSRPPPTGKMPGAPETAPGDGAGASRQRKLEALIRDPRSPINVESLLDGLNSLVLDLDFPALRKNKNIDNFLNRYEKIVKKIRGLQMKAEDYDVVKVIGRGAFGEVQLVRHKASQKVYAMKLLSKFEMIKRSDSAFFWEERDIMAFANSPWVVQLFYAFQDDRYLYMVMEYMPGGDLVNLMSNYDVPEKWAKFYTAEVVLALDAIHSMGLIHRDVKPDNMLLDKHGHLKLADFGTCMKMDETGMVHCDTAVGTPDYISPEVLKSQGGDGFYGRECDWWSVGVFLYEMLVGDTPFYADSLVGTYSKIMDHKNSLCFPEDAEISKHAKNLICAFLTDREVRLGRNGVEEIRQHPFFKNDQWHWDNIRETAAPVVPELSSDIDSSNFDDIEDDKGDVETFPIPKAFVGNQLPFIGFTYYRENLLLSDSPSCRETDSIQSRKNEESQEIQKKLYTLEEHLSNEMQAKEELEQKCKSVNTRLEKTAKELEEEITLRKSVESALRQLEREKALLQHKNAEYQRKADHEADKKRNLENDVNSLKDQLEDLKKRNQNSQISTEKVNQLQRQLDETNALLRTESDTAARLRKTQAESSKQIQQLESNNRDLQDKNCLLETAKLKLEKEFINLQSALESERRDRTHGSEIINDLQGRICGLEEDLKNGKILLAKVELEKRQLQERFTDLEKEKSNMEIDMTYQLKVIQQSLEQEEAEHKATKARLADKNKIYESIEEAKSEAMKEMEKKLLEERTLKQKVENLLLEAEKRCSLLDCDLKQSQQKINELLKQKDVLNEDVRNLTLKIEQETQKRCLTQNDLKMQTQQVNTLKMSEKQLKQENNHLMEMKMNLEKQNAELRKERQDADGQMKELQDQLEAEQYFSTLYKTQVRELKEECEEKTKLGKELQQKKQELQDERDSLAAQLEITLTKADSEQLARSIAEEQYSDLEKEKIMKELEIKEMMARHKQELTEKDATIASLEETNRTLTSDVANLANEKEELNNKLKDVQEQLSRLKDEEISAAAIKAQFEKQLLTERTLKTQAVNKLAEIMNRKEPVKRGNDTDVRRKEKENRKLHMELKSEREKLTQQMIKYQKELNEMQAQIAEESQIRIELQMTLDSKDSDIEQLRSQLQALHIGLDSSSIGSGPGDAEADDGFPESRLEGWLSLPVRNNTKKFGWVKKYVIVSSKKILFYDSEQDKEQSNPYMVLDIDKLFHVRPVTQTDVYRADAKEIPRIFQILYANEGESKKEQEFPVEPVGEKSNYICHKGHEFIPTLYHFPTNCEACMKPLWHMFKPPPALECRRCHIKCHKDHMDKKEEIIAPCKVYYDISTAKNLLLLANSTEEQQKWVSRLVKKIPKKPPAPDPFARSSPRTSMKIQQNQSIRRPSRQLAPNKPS

Molecule	IC50 [nM]
CC(C)(O)COc1ccc2c(C(=O)NC3CC4(C3)CC(Oc3cc(-c5cccc(C(F)(F)F)c5)ccc3C(N)=O)C4)cnn2c1 (stereo not drawn) [Example 243, N-(6-((4-carbamoyl-3′-(trifluoromethyl)-[1,1′-biphenyl]-3-yl)oxy)spiro[3.3]heptan-2-yl)-6-(2-hydroxy-2-methylpropoxy)pyrazolo[1,5-a]pyridine-3-carboxamide]	50 to 250
NC(=O)c1cccnc1O[C@H]1CC2(C[C@H](NC(=O)c3cnn4cc(OCCCN5CCCC5=O)ccc34)C2)C1 (stereo partly drawn) [Example 124, N-((aR)-6-((3-carbamoylpyridin-2-yl)oxy)spiro[3.3]heptan-2-yl)-6-(3-(2-oxopyrrolidin-1-yl)propoxy) pyrazolo[1,5-a]pyridine-3-carboxamide, trifluoroacetate]	5 to 50
NC(=O)c1cccnc1O[C@H]1CC2(C[C@H](NC(=O)c3cnn4cc(OCC[C@H]5COC(=O)N5)ccc34)C2)C1 (stereo partly drawn) [Example 126, N-((aR)-6-((3-carbamoylpyridin-2-yl)oxy)spiro[3.3]heptan-2-yl)-6-(2-((S)-2-oxoxazolidin-4-yl)ethoxy) pyrazolo[1,5-a]pyridine-3-carboxamdie, trifluoroacetate]	< 5
COc1ccc(C(N)=O)c(O[C@H]2CC3(C[C@H](NC(=O)c4cnn5c(CCC(F)(F)F)c(OCC(C)(C)O)ccc45)C3)C2)n1 (stereo partly drawn) [Example 168, N-((aR)-6-((3-carbamoyl-6-methoxypyridin-2-yl)oxy)spiro[3.3]heptan-2-yl)-6-(2-hydroxy-2-methylpropoxy)-7-(3,3,3-trifluoropropyl)pyrazolo [1,5-a]pyridine-3-carboxamide]	< 5
NC(=O)c1cccnc1O[C@H]1CC2(C[C@H](NC(=O)c3cnn4cc(OC5CCS(=O)(=O)CC5)ccc34)C2)C1 (stereo partly drawn) [Example 339, N-((aR)-6-((3-carbamoylpyridin-2-yl)oxy)spiro[3.3]heptan-2-yl)-6-((1,1-dioxidotetrahydro-2H-thiopyran-4-yl)oxy)pyrazolo[1,5-a]pyridine-3-carboxamide]	5 to 50
[H][C@]1(Oc2ncccc2C(N)=O)C[C@@]2(C[C@H](NC(=O)c3cc(C#N)cc(-c4cnc(C)s4)c3)C2)C1 (stereo partly drawn) [Example 180, 2-(((aR)-6-(3-cyano-5-(2-methylthiazol-5-yl)benzamido)spiro[3.3]heptan-2-yl)oxy)nicotinamide, TFA]	< 5
[H][C@]1(Oc2ncccc2C(N)=O)C[C@]2(C[C@@H](NC(=O)c3cn4cc(OC)ccc4n3)C2)C1 (stereo partly drawn) [Example 464, N-((aR)-6-((3-carbamoylpyridin-2-yl)oxy)spiro[3.3]heptan-2-yl)-6-methoxyimidazo[1,2-a]pyridine-2-carboxamide, TFA Salt]	250 to 2500
[H][C@]1(Oc2ncccc2C(N)=O)C[C@@]2(C[C@H](NC(=O)c3cnn(-c4ccccc4)c3C)C2)C1 (stereo partly drawn) [Example 379]	50 to 250
Cn1nc(C(=O)N[C@H]2CC3(C2)C[C@H](Oc2ncccc2C(N)=O)C3)cc1OCC1CC1 (stereo partly drawn) [Example 84, 2-((aR)-6-(5-(cyclopropyl-methoxy)-1-methyl-1H-pyrazole-3-carboxamido)spiro-[3.3]heptan-2-yl)oxy) nicotinamide, trifluoroacetate]	50 to 250
NC(=O)c1cccnc1O[C@H]1CC2(C[C@H](NC(=O)c3cnn4cc(OC(F)F)ccc34)C2)C1 (stereo partly drawn) [Example 312, N-((aR)-6-((3-carbamoylpyridin-2-yl)oxy)spiro[3.3]heptan-2-yl)-6-(difluoromethoxy)pyrazolo[1,5-a]pyridine-3-carboxamide]	5 to 50
[H][C@]1(Oc2ncccc2C(N)=O)C[C@@]2(C[C@H](NC(=O)c3nn(C(C)(C)C#N)c4cc(-c5cnn(C)c5)ccc34)C2)C1 (stereo partly drawn) [Example 406, N-((aR)-6-((3-carbamoylpyridin-2-yl)oxy)spiro[3.3]heptan-2-yl)-1-(2-cyanopropan-2-yl)-6-(1-methyl-1H-pyrazol-4-yl)-1H-indazole-3-carboxamide, TFA]	< 5
NC(=O)c1cccnc1O[C@H]1CC2(C[C@H](NC(=O)c3cnc4cc(OCC(F)F)ccn34)C2)C1 (stereo partly drawn) [Example 331, N-((aR)-6-((3-carbamoylpyridin-2-yl)oxy)spiro[3.3]heptan-2-yl)-7-(2,2-difluoroethoxy)imidazo[1,2-a]pyridine-3-carboxamide]	5 to 50
CC(C)(O)COc1ccc2c(C(=O)NC3CC4(C3)CC(Oc3cc(N5CCOCC5)ccc3C(N)=O)C4)cnn2c1 (stereo not drawn) [Example 230, N-(6-(2-carbamoyl-5-morpholinophenoxy)spiro[3.3]heptan-2-yl)-6-(2-hydroxy-2-methylpropoxy)pyrazolo[1,5-a]pyridine-3-carboxamide]	50 to 250
C[C@@H](O)COc1ccc2c(C(=O)N[C@H]3CC4(C3)C[C@H](Oc3ncccc3C(N)=O)C4)cnn2c1 (stereo partly drawn) [Example 330, N-((aR)-6-((3-carbamoylpyridin-2-yl)oxy)spiro[3.3]heptan-2-yl)-6-((R)-2-hydroxypropoxy)pyrazolo[1,5-a]pyridine-3-carboxamide]	5 to 50
CN1CCN(c2ccn3c(C(=O)N[C@H]4CC5(C4)C[C@H](Oc4ccccc4C(N)=O)C5)cnc3c2)CC1 (stereo partly drawn) [Example 36, N-[(aR)-6-(2-carbamoylphenoxy)spiro [3.3]heptan-2-yl]-7-(4-methylpiperazin-1-yl)imidazo[1,2-a] pyridine-3-carboxamdie]	5 to 50
COC(=O)N1CC(Oc2ccc3c(C(=O)N[C@H]4CC5(C4)C[C@H](Oc4ccccc4C(N)=O)C5)cnn3c2)C1 (stereo partly drawn) [Example 27, methyl 3-((3-(((aR)-6-(2-carbamoylphenoxy)spiro[3.3]heptan-2-yl)carbamoyl)pyrazolo[1,5-a]pyridin-6-yl)oxy)azetidine-1-carboxylate]	5 to 50
[H][C@]1(Oc2ncccc2C(N)=O)C[C@@]2(C[C@H](NC(=O)c3nn(CC(C)(C)O)c4ccc(-c5cnn(C)c5)cc34)C2)C1 (stereo partly drawn) [Example 50, N-((aR)-6-((3-carbamoylpyridin-2-yl)oxy)spiro[3.3]heptan-2-yl)-1-(2-hydroxy-2-methylpropyl)-5-(1-methyl-1H-pyrazol-4-yl)-1H-indazole-3-carboxamide]	5 to 50
Cc1nn(C)cc1-c1cc(C#N)cc(C(=O)N[C@H]2CC3(C2)C[C@H](Oc2ncccc2C(N)=O)C3)c1 (stereo partly drawn) [Example 182, 2-(((aR)-6-(3-cyano-5-(1,3-dimethyl-1H-pyrazol-4-yl)benzamido)spiro [3.3]heptan-2-yl)oxy)nicotinamide, trifluoroacetate]	< 5
[H][C@]1(Oc2ncccc2C(N)=O)C[C@@]2(C[C@H](NC(=O)c3cccc(-c4cccc(S(C)(=O)=O)c4)c3)C2)C1 (stereo partly drawn) [Example 55]	50 to 250
NC(=O)c1cccnc1O[C@H]1CC2(C[C@H](NC(=O)c3cnc4cc(N5CC[C@@H](F)C5)ccn34)C2)C1 (stereo partly drawn) [Example 329, N-((aR)-6-((3-carbamoylpyridin-2-yl)oxy)spiro[3.3]heptan-2-yl)-7-((R)-3-fluoropyrrolidin-1-yl)imidazo[1,2-a]pyridine-3-carboxamide]	< 5
[H][C@]1(Oc2ncccc2C(N)=O)C[C@@]2(C[C@H](NC(=O)c3nn(CC(C)(C)O)c4cc(-c5cnn(C)c5)ccc34)C2)C1 (stereo partly drawn) [Example 46, N-((aR)-6-((3-carbamoylpyridin-2-yl)oxy)spiro[3.3]heptan-2-yl)-1-(2-hydroxy-2-methylpropyl)-6-(1-methyl-1H-pyrazol-4-yl)-1H-indazole-3-carboxamide]	< 5
CC(C)(C(N)=O)n1nc(C(=O)N[C@H]2CC3(C2)C[C@H](Oc2ncccc2C(N)=O)C3)c2ccc(-c3cnn(C(F)F)c3)cc21 (stereo partly drawn) [Example 409, 1-(1-amino-2-methyl-1-oxopropan-2-yl)-N-((aR)-6-((3-carbamoylpyridin-2-yl)oxy)spiro[3.3]heptan-2-yl)-6-(1-(difluoromethyl)-1H-pyrazol-4-yl)-1H-indazole-3-carboxamide, TFA]	< 5
CC(C)(O)COc1ccc2c(C(=O)NC3CC4(C3)CC(Oc3cc(-c5cccc(C(N)=O)c5)ccc3C(N)=O)C4)cnn2c1 (stereo not drawn) [Example 289, 3′-((6-(6-(2-hydroxy-2-methylpropoxy)pyrazolo[1,5-a]pyridine-3-carboxamido)spiro[3.3]heptan-2-yl)oxy)-[1,1′-biphenyl]-3,4′-dicarboxamide]	< 5
NC(=O)c1cccnc1O[C@H]1CC2(C[C@H](NC(=O)c3cnc4cc(N5CC[C@@H](O)C5)ccn34)C2)C1 (stereo partly drawn) [Example 326, N-((aR)-6-((3-carbamoylpyridin-2-yl)oxy)spiro[3.3]heptan-2-yl)-7-((R)-3-hydroxypyrrolidin-1-yl)imidazo[1,2-a]pyridine-3-carboxamide]	5 to 50

Same assay, conditions: read-out: ROCK2 Activity (ROCK2 IC50); 5 μM ATP, 1.5 μM peptide substrate, pH 7.5

Molecule	IC50 [nM]
CS(=O)(=O)c1cc(Br)cc(C(=O)NC2CC3(C2)CC(Oc2ncccc2C(N)=O)C3)c1 [Example 119, 2-((aR)-6-(3-bromo-5-(methylsulfonyl)benzamido)spiro[3.3]heptan-2-yl)oxy) nicotinamide, trifluoroacetate]	5 to 50
2-((aR)-6- (1-phenyl-1H- pyrazole-4- carboxamido) spiro[3.3]- heptan-2-yl)oxy) nicotinamide, trifluoroacetate [Example 73]	5 to 50
COc1ccc2c(c1)CCc1c-2nn(C)c1C(=O)NC1CC2(C1)CC(Oc1ncccc1C(N)=O)C2 [Example 381, N-((aR)-6-((3-carbamoylpyridin-2-yl)oxy)spiro[3.3]heptan-2-yl)-7-methoxy-2-methyl-4,5-dihydro-2H-benzo[g]indazole-3-carboxamide]	250 to 2500
C[C@@H]1CN(c2ccc3c(C(=O)NC4CC5(C4)CC(Oc4ncccc4C(N)=O)C5)nc(C(F)F)n3c2)C[C@H](C)O1 (stereo partly drawn) [Example 444, N-((aR)-6-((3-carbamoylpyridin-2-yl)oxy)spiro[3.3]heptan-2-yl)-3-(difluoromethyl)-6-((2S,6R)-2,6-dimethylmorpholino)imidazo[1,5-a]pyridine-1-carboxamide]	< 5
Cc1c(C(=O)N[C@H]2CC3(C2)C[C@H](Oc2ncccc2C(N)=O)C3)cnn1-c1ccc(C#N)cc1F (stereo partly drawn) [Example 388, N-[(aR)2-({6-[1-(4-cyano-2-fluorophenyl)-5-methyl-1H-pyrazole-4-amido]spiro[3.3]heptan-2-yl}oxy)pyridine-3-carboxamide 1 trifluoroacetic acid salt]	50 to 250
COc1ccc(-n2ncc(C(=O)N[C@H]3CC4(C3)C[C@H](Oc3ncccc3C(N)=O)C4)c2C)cn1 (stereo partly drawn) [Example 400]	5 to 50
